System: 96% ethanol induced gastric lesions
Experiment: 96% ethanol induced gastric lesions cytoprotection model
Type: in vivo, male Wistar rats
Settings: 8 animals, mean±standard deviation, saline control 255.5±78.1, p<0.05 compared to controls
Protocol: Bioactive peptide fragments SYSMEHFRWGKPV and YGGFM were tested individually and in combination, by means of the standard cytoprotection model of the 96% ethanol induced gastric lesions in male Wistar rats (6, 7). In the control group of 8 animals treated with physiological saline the area of gastric lesions was 255.5±78.1 mm^2 (mean±standard deviation, FIG. 1) (7). In the group of 8 animals treated with the combination of peptides SYSMEHFRWGKPV (1 mg/kg) and YGGFM (10 mg/kg) the area of gastric lesions was 0.3±0.7 mm^2 (p<0.05 compared to controls, FIG. 1) (7). In the group of 8 animals treated with peptide SYSMEHFRWGKPV (1 mg/kg) the area of gastric lesions was 5.9±8 mm^2 (p<0.05 compared to controls, FIG. 1) (7). In the group of 8 animals treated with peptide YGGFM (10 mg/kg) the area of gastric lesions was 139.4±36.1 mm^2 (p<0.05 compared to controls, FIG. 1) (7). The combination of peptides SYSMEHFRWGKPV and YGGFM that provided best cytoprotective effect is patented under the name KOMET.
FIG. 1 defines the cytoprotective effects of the bioactive peptide fragments SYSMEHFRWGKPV and YGGFM of the pro-opiomelanocortin molecule, and their combination KOMET, in the model of the ethanol induced gastric lesions in rats.
FIG. 1. […]

Substance | area of gastric lesions (1 mg/kg) [mm^2] | area of gastric lesions (10 mg/kg) [mm^2]
SYSMEHFRWGKPV | 5.9±8 | 
YGGFM |  | 139.4±36.1
